The values below are quoted from earlier work in PMC11316111, “Mechanism of allosteric inhibition of human p97/VCP ATPase and its disease mutant by triazole inhibitors” (Communications Chemistry, 2024).

The series concerns the target T1, wild-type p97 (p97^WT) (Homo sapiens, UniProt P55072).
T1 construct: made in house
The arrangement: method as in PMID 26822609. As to conditions: read-out: IC50 (p97 ATPase); cited from earlier work.

T1 sequence (P55072 whole entry): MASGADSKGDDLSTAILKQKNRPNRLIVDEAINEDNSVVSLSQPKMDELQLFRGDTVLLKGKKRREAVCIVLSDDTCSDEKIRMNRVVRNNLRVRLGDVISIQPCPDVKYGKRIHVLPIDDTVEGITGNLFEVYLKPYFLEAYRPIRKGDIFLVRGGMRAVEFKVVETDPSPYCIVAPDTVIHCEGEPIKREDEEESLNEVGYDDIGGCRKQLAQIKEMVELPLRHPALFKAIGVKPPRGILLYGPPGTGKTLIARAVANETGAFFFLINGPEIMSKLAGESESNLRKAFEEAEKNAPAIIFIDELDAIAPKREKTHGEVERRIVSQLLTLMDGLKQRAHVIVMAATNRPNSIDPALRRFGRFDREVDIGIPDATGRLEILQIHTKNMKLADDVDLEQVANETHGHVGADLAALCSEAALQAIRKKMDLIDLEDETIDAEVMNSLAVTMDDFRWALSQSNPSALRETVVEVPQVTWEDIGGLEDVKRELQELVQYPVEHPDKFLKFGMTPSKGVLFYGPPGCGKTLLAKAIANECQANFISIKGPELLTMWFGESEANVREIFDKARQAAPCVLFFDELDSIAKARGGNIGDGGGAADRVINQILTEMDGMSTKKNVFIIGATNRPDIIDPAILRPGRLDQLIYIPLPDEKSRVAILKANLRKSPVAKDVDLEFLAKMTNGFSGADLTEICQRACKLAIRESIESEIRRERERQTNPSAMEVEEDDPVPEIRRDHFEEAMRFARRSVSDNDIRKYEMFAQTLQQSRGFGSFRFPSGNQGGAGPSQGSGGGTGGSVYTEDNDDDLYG

As usually defined, the IC50 is the concentration that gives 50% inhibition. As to `CC(C)N1CCN(CCNC2CCN(c3cccc(-c4cc5cc(F)ccc5[nH]4)c3)CC2)CC1` [UPCDC30245], the IC50 was 27 nM.
